Earlier results on five compounds are cited in patent US20130316926A1, “METHOD FOR THE MONITORING OF SMOKING CESSATION COMPLIANCE AND RECOVERY, THERAPEUTIC INTERVENTION, AND RISK MANAGEMENT” (Health Diagnostic Laboratory, Inc., priority 2012, published 2013).

The conditions of series [1]: for urinary concentration: tobacco user, regardless of nicotine replacement therapy.
For series [2] the following is noted: for t½: b55, cotinine value is an average.

Where two headings read alike, the source gives them in different places.

As to `CN1C(=O)[C@H](O)C[C@H]1c1cccnc1` (relative stereo) [trans-3-hydroxycotinine], in series [1], the “Concentration of Urinary: Non-tobacco user with no passive exposure” value is below 50 ng/mL, the “Concentration of Urinary: Non-tobacco user with Passive exposure” value is below 50 ng/mL, the “Concentration of Urinary: Tobacco user after 2 weeks' abstinence” value (from here on “Concentration of Urinary: Tobacco user”) is recorded as below 120 ng/mL and the “concentration in urine of tobacco users” value is on record as 3,000-25,000 ng/mL. In series [2], the half-life is 10 h.
Regarding `c1cncc([C@@H]2CCCCN2)c1` [Anabasine], in series [1], the “Concentration of Urinary: Non-tobacco user with no passive exposure” value is recorded as below 2.0 ng/mL, the “Concentration of Urinary: Non-tobacco user with Passive exposure” value was below 2.0 ng/mL, the “Concentration of Urinary: Tobacco user” value is below 2.0 ng/mL and the urinary concentration is reported as above 10 ng/mL.
In the case of `CN1C(=O)CC[C@H]1c1cccnc1` [Cotinine], in series [1], the “Concentration of Urinary: Non-tobacco user with no passive exposure” value is on record as below 5.0 ng/mL, the “Concentration of Urinary: Non-tobacco user with Passive exposure” value is on record as below 20 ng/mL, the “Concentration of Urinary: Tobacco user” value is recorded as below 50 ng/mL and the “concentration in urine of tobacco users” value was 1,000-8,000 ng/mL. For the same compound, in series [2], the half-life is 15 h and the t½ is listed as 16 h. In series [2] (b40, Benowitz 1986), the half-life entry is “about 20 hrs”.
For the compound `CN1CCCC1c1cccnc1` (centres unmarked) [Nicotine], in series [1], the “Concentration of Urinary: Non-tobacco user with no passive exposure” value is given as below 2.0 ng/mL, the “Concentration of Urinary: Non-tobacco user with Passive exposure” value is listed as below 20 ng/mL, the “Concentration of Urinary: Tobacco user” value is on record as below 30 ng/mL and the “concentration in urine of tobacco users” value was 1,000-5,000 ng/mL. In addition, in series [2], the half-life was 2 h and the t½ is 2 h. Moreover, the “time to reach the central nervous system” value in series [2] (after tobacco smoke inhalation) is at most 20 s. For the same compound, the “fraction of circulating nicotine metabolized to cotinine” value in series [2] (by cytochrome P450 and aldehyde oxidase) is listed as 70%. In addition, in series [2] (in vivo), the distribution half-life is given as 8 min and the elimination half-life is 2 h. For the same compound, in series [2] (on average), the “nicotine leaving the liver in metabolite forms” value was 70%; the “nicotine that enters the liver and exits unchanged” value was 30%.
Consider `c1cncc([C@@H]2CCCN2)c1` [Nornicotine], for which, in series [1], the “Concentration of Urinary: Non-tobacco user with no passive exposure” value is listed as below 2.0 ng/mL, the “Concentration of Urinary: Non-tobacco user with Passive exposure” value was below 2.0 ng/mL, the “Concentration of Urinary: Tobacco user” value was below 2.0 ng/mL and the urinary concentration was above 30 ng/mL.
